This note sets out measurements from article PMC6752721 (Chembiochem : a European journal of chemical biology, 2019).

Series [1] has as its system HeLa cells. The series can be described thus: Cytosolic entry efficiency of naphthofluorescein. The settings on record: 10% FBS, flow cytometry; for fold decrease in CPP activity (cellular entry efficiency) relative to peptide 4 / fold increase in CPP activity (cellular entry efficiency) relative to peptide 4: 5 μM NF-labeled peptide, 2 h. Format: cell-based.
Series [2] relates to HeLa cells. Kind of series: MTT cytotoxicity assay. In kind it is cell-based. (In general: Tetrazolium assays rely on reduction of a dye to a coloured formazan, in cell work by metabolically active cells.)

Where a SMILES comes first, the peptide text is derived from it. [ ]: non-standard residue; d: D form. The star is where a group is joined. Decanoyl = CCCCCCCCCC(=O)*; Orn = NCCC[C@H](N)C(=O)O; Dap = NC[C@H](N)C(=O)O; NHDecyl = CCCCCCCCCCN*

On to `CCCCCCCCCC(=O)NC[C@@H]1NC(=O)[C@H](CCC(N)=O)NC(=O)[C@@H](CCCNC(=N)N)NC(=O)[C@H](CCCNC(=N)N)NC(=O)[C@@H](CCCNC(=N)N)NC(=O)[C@H](CCCNC(=N)N)NC1=O` [compound 9] (cyclo([Dap](Decanoyl)R[dR]R[dR]Q)), for which, in series [1], the “fold decrease in CPP activity (cellular entry efficiency) relative to peptide 4” value is ~ 3 fold.

Consider `CCCCCCCCCC(=O)NC[C@@H]1NC(=O)[C@H](CCC(N)=O)NC(=O)[C@H](CCCNC(=N)N)NC(=O)[C@@H](CCCNC(=N)N)NC(=O)[C@H](CCCNC(=N)N)NC(=O)[C@@H](CCCNC(=N)N)NC1=O` [compound 10] (cyclo([Dap](Decanoyl)[dR]R[dR]RQ)), for which the “fold decrease in CPP activity (cellular entry efficiency) relative to peptide 4” value in series [1] is given as ~ 3 fold.

On to `CCCCCCCCCC(=O)NC[C@@H]1NC(=O)[C@H](CCC(N)=O)NC(=O)[C@H](CCCNC(=N)N)NC(=O)[C@H](CCCNC(=N)N)NC(=O)[C@H](CCCNC(=N)N)NC(=O)[C@H](C)NC1=O` [compound 12] (cyclo(ARRRQ[Dap](Decanoyl))), for which the “fold decrease in CPP activity (cellular entry efficiency) relative to peptide 4” value in series [1] is ~ 2 fold.

Consider `CCCCCCCCCC(=O)NCCC[C@@H]1NC(=O)[C@H](CCC(N)=O)NC(=O)[C@H](CCCNC(=N)N)NC(=O)[C@H](CCCNC(=N)N)NC(=O)[C@H](CCCNC(=N)N)NC(=O)[C@H](CCCNC(=N)N)NC1=O` [compound 15] (cyclo([Orn](Decanoyl)RRRRQ)), for which, in series [1], the “fold increase in CPP activity (cellular entry efficiency) relative to peptide 4” value is given as 2 fold.

`CCCCCCCCCC(=O)NC[C@@H]1NC(=O)[C@H](CCC(N)=O)NC(=O)[C@H](CCCNC(=N)N)NC(=O)[C@H](CCCNC(=N)N)NC(=O)[C@H](CCCNC(=N)N)NC(=O)[C@H](CCCNC(=N)N)NC(=O)[C@H](CCCNC(=N)N)NC1=O` [peptide 14]: the “fold decrease in CPP activity (cellular entry efficiency) relative to peptide 4” value in series [1] was roughly 5 fold.

On to `CCCCCCCCCC(=O)NCCCC[C@@H]1NC(=O)[C@H](CCC(N)=O)NC(=O)[C@H](CCCNC(=N)N)NC(=O)[C@H](CCCNC(=N)N)NC(=O)[C@H](CCCNC(=N)N)NC(=O)[C@H](CCCNC(=N)N)NC1=O` [peptide 16] (cyclo(K(Decanoyl)RRRRQ)), for which, in series [1], the “fold increase in CPP activity (cellular entry efficiency) relative to peptide 4” value stood at 1.3 fold.

With `CCCCCCCCCCNC(=O)C[C@@H]1NC(=O)[C@H](CCC(N)=O)NC(=O)[C@H](CCCNC(=N)N)NC(=O)[C@H](CCCNC(=N)N)NC(=O)[C@H](CCCNC(=N)N)NC(=O)[C@H](CCCNC(=N)N)NC1=O` [peptide 17] (cyclo(D(NHDecyl)RRRRQ)), in series [2] (≤25 μM peptide, not concentration-dependent), the “reduction of cell viability” value is ~ 30%. Further, the “effect on cell viability at higher concentrations” value in series [2] (≥50 μM peptide) is recorded as “significant loss of HeLa cell viability”. In addition, in series [1], the “fold increase in CPP activity (cellular entry efficiency) relative to peptide 4” value is reported as ~ 5 fold and the “fold more active than CPP12 (cellular entry efficiency)” value is recorded as 2.8 fold.
